Measurements published in ChEMBL document CHEMBL2150853 (Eur J Med Chem, 2011).

Key:
[1] = biological target: Major prion protein (Homo sapiens) (UniProt P04156); assay: Binding affinity to truncated human PrP 121-231 at 50 uM by surface plasmon resonance method
[2] = Effective permeability of the compound at pH 7.4 at 30 to 50 uM by PAMPA assay; type: ADME; details: read-out: Peff
[3] = Antiprion activity against mouse prion protein RML infected mouse ScN2a cells assessed as reduction of PrPSc level by Western blot method; type: cell-based
ScN2a = assay: Antiprion activity against mouse prion protein RML infected mouse ScN2a cells assessed as drug level required for more than 99 percent reduction of PrPSc level by Western blot method; type: cell-based
[4] = Antiprion activity against mouse prion protein 22L infected mouse N167 cells assessed as reduction of PrPSc level by Western blot method; type: cell-based
N167 = assay: Antiprion activity against mouse prion protein 22L infected mouse N167 cells assessed as drug level required for more than 99 percent reduction of PrPSc level by Western blot method; type: cell-based
[5] = Cytotoxicity against mouse N2A cells assessed as maximal tolerant concentration; type: cell-based; details: read-out: MTD
[6] = Solubility of the compound in phosphate buffer at 50 uM; type: physicochemical
[7] = Antiprion activity against human prion protein Fukuoka-1 infected mouse F3 cells assessed as reduction of PrPSc level by Western blot method; type: cell-based; details: N2a #58 F3
N2a #58 F3 = assay: Antiprion activity against human prion protein Fukuoka-1 infected mouse F3 cells assessed as drug level required for more than 99 percent reduction of PrPSc level by Western blot method; type: cell-based

COc1ccc2nc3cc(Cl)ccc3c(NCCCN(C)C)c2c1
RUmax [1]: 164% | Papp at up to 50 µM [2]: 13.3 ×10⁻⁶ cm/s

COc1ccc2nc3cc(Cl)ccc3c(NC3CCN(Cc4ccc(Cl)cc4)CC3)c2c1
EC50 [3]: 280 nM | Activity (ScN2a): 1 µM | EC50 [4]: 340 nM | Activity (N167): 3 µM | MNTC [5]: 12 µM | RUmax [1]: 98.3% | Papp at up to 50 µM [2]: 15.5 ×10⁻⁶ cm/s

COc1ccc2nc3cc(Cl)ccc3c(NCC#CCN3CCN(C)CC3)c2c1
EC50 [3]: 27 nM | Activity (ScN2a): 1 µM | EC50 [4]: 990 nM | Activity (N167): 3 µM | MNTC [5]: 8 µM | Papp at up to 50 µM [2]: 11.5 ×10⁻⁶ cm/s | solubility [6]: Insoluble

COc1ccc(CN2CCC(Nc3c4ccc(Cl)cc4nc4ccc(OC)cc34)CC2)cc1
EC50 [3]: 82 nM | Activity (ScN2a): 1.5 µM | EC50 [4]: 520 nM | Activity (N167): 2 µM | MNTC [5]: 10 µM | RUmax [1]: 160% | Papp at up to 50 µM [2]: 7.54 ×10⁻⁶ cm/s

COc1ccc2nc3cc(Cl)ccc3c(NC3CCN(Cc4ccc(C#N)cc4)CC3)c2c1
EC50 [3]: 550 nM | Activity (ScN2a): 1 µM | EC50 [4]: 140 nM | Activity (N167): 1 µM | MNTC [5]: 5 µM | RUmax [1]: 109% | Papp at up to 50 µM [2]: 9.15 ×10⁻⁶ cm/s

COc1ccc2nc3cc(Cl)ccc3c(NC3CCN(CCc4ccc(C)cc4)CC3)c2c1
EC50 [3]: 76 nM | Activity (ScN2a): 1 µM | EC50 [4]: 300 nM | Activity (N167): 1 µM | EC50 [7]: 690 nM | Activity (N2a #58 F3): 3 µM | MNTC [5]: 3 µM | RUmax [1]: 148% | Papp at up to 50 µM [2]: 7.39 ×10⁻⁶ cm/s

Clc1ccc2c(NC3CCN(Cc4ccccc4)CC3)ccnc2c1
EC50 [3]: 150 nM | Activity (ScN2a): 1 µM | EC50 [4]: 230 nM | Activity (N167): 2 µM | EC50 [7]: 1200 nM | Activity (N2a #58 F3): 3 µM | MNTC [5]: > 10 µM | RUmax [1]: 114%

COc1ccc2nc3cc(Cl)ccc3c(NC3CCN(Cc4ccccc4)CC3)c2c1
EC50 [3]: 420 nM | Activity (ScN2a): 1 µM | EC50 [4]: 490 nM | Activity (N167): 1.5 µM | EC50 [7]: 800 nM | MNTC [5]: 2 µM | RUmax [1]: 65.4%

COc1ccc2nc3cc(Cl)ccc3c(NC3CCN(CCc4ccccc4)CC3)c2c1
EC50 [3]: 130 nM | Activity (ScN2a): 0.5 µM | EC50 [4]: 230 nM | Activity (N167): 1 µM | EC50 [7]: 190 nM | Activity (N2a #58 F3): 2 µM | MNTC [5]: 2 µM | RUmax [1]: 174% | Papp at up to 50 µM [2]: 7.68 ×10⁻⁶ cm/s

COc1ccc2nc3cc(Cl)ccc3c(Nc3ccc(CN4CCN(C)CC4)cc3)c2c1
EC50 [3]: 60 nM | Activity (ScN2a): 0.5 µM | EC50 [4]: 350 nM | Activity (N167): 2 µM | EC50 [7]: 860 nM | Activity (N2a #58 F3): 3 µM | MNTC [5]: 4 µM | RUmax [1]: 207%

CCN1CCN(c2ccc(Nc3c4ccc(Cl)cc4nc4ccc(OC)cc34)cc2)CC1
EC50 [3]: 80 nM | Activity (ScN2a): 1 µM | EC50 [4]: 960 nM | MNTC [5]: 3 µM | RUmax [1]: 194% | Papp at up to 50 µM [2]: 6.13 ×10⁻⁶ cm/s

COc1ccc2nc3cc(Cl)ccc3c(Nc3ccc(C(=O)N4CCN(C)CC4)cc3)c2c1
EC50 [3]: 1230 nM | Activity (ScN2a): 5 µM | EC50 [4]: 4200 nM | Activity (N167): 7 µM | EC50 [7]: 4100 nM | MNTC [5]: 12 µM | RUmax [1]: 232%

COc1ccc2nc3cc(Cl)ccc3c(Nc3ccc(CN4CCCCC4)cc3)c2c1
EC50 [3]: 99 nM | Activity (ScN2a): 0.5 µM | EC50 [4]: 510 nM | Activity (N167): 1 µM | EC50 [7]: 640 nM | Activity (N2a #58 F3): 3 µM | MNTC [5]: 5 µM | RUmax [1]: 144% | Papp at up to 50 µM [2]: 5.28 ×10⁻⁶ cm/s

Cn1c(=O)c2c(ncn2C)n(C)c1=O [CAFFEINE]
Papp at up to 50 µM [2]: 2.46 ×10⁻⁶ cm/s

COc1ccc2nc3cc(Cl)ccc3c(NC3CC4CCC(C3)N4Cc3ccccc3)c2c1 (stereo not drawn)
EC50 [3]: 54 nM | Activity (ScN2a): 2 µM | EC50 [4]: 350 nM | Activity (N167): 1 µM | EC50 [7]: 540 nM | Activity (N2a #58 F3): 1.5 µM | MNTC [5]: 2 µM | Papp at up to 50 µM [2]: 8.31 ×10⁻⁶ cm/s | solubility [6]: Insoluble
